Where a SMILES comes first, the peptide text is derived from it. The star is where a group is joined. Cbz = O=C(OCc1ccccc1)*; CH2F = FC*
What was measured:
[1] = molecular target: T1, caspase-3 (Rattus norvegicus, UniProt P55213); assay: Caspase-3 activity assay with fluorogenic substrate Ac-DEVD-AFC in treated N27 cells; assay type: cell-based
T1 construct: N27 cells were exposed to either MPP^+ or 6-OHDA in the absence or presence of z-DIPD-fmk; endogenous in cells; host or cells: N27 rat mesencephalic dopaminergic neuronal cells
T1 sequence (P55213 29-175 limits assumed): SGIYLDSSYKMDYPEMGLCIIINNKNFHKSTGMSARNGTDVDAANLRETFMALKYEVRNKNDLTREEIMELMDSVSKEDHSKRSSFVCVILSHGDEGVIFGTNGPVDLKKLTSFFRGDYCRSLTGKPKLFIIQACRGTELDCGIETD
T1 sequence (P55213 176-277 limits assumed): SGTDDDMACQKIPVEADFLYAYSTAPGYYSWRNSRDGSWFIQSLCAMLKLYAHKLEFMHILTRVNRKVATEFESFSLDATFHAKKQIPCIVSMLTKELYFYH
From the text: (§1) Chemicals. Protease cocktail, ATP, protein-A-sepharose, protein-G-sepharose and anti-â-actin antibody were obtained from Sigma-Aldrich (St. Louis, Mo.); mouse tyrosine hydroxylase antibody was purchased from Chemicon (Temecula, Calif.); the rabbit polyclonal antibody for tyrosine hydroxylase was obtained from Calbiochem Bioscience, Inc. (King of Prussia, Pa.); rabbit PKCδ antibody was purchased from Santa Cruz Biotechnology, Inc. (Santa Cruz, Calif.); anti-rabbit and anti-mouse secondary antibodies and the ECL chemiluminescence kit were purchased from Amersham Pharmacia Biotech. (Piscataway, N.J.). Alexa 488 conjugated antirabbit/mouse, Cy3 conjugated anti-rabbit/mouse antibody and Hoechst 33342 were purchased from Molecular Probes, Inc. (Eugene, Oreg.). [ã-32P]ATP was purchased from Perkin Elmer Life Science Products (Boston, Mass.). The Bradford protein assay kit was purchased from Bio-Rad Laboratories (Hercules, Calif.). RPMI, fetal bovine serum, -glutamine, penicillin, and streptomycin were purchased from Invitrogen (Gaithersburg, Md.). Quantity One 4.2.0 software was purchased from Bio-Rad. Design and synthesis of z-DIPD-fmk (SEQ ID NO:5). To develop a cell permeable peptide inhibitor to specifically block PKCδ cleavage, we designed the tetrapeptide Asp-Ile-Pro-Asp (DIPD) (SEQ ID NO:5) corresponding to position 324-327 in rat PKCδ cDNA representing the caspase-3 cleavage site. Since this peptide is directed against the caspase-3 cleavage site of PKCδ, it should prevent the proteolytic cleavage and activation of PKCδ mediated by caspase-3. The custom synthesis of the tetrapeptide Z-Asp(OMe)-Ile-Pro-Asp(OMe)-FMK (SEQ ID NO:5) was performed at MP Biomedicals (Irvine, Calif.), a quality company that specializes in developing cell permeable peptide inhibitors directed against apoptosis cell signaling molecules. Briefly, the synthesis was performed with the reaction of Boc-D(OMe)-OH with MBFM (Magnesium benzyl fluoromalonate) to produce Beta-Keto fluoroester, followed by hydrogenation with Pd/c to produce Boc-D(OMe)FK, which was converted into Tfa salt using trifluoroacetic acid. Coupling of Tfa salt with Z-D(OMe)—I—P—OH in DMF with HOBT, HBTU DIEA and workup produced a crude product which was purified by column chromatography over silica gel. Elution with EtOAC:MeOH 95:5 gave pure fractions which were mixed and dried. Crystallization with EtOAC/Hexane, filtration and drying produced the pure product. Animals. Time-pregnant C57/bL mice were housed under standard conditions: constant temperature (22±1° C.), humidity (relative, 30%) and a 12-h light/dark cycle with free access to food and water. The animals and protocol procedures were approved and supervised by the Committee on Animal Care (COAC) at Iowa State University. Cell culture. Rat mesencephalic dopaminergic neuronal (N27) cells were cultured as described earlier (Anantharam et al., 2002). Briefly, cells were grown in RPMI 1640 medium containing 10% fetal bovine serum, 2 mM L-glutamine, 50 units of penicillin, and 50 μg/ml streptomycin. Cells were maintained in a humidified atmosphere of 5% CO2 at 37° C. Primary mesencephalic neuronal cultures were prepared from the ventral mesencephalon of gestational 18-day-old mice embryos as described previously (Yang et al., 2004). Mesencephalic tissues were dissected and maintained in ice-cold Ca2+-free HBSS and then dissociated in HBSS solution containing trypsin-EDTA (0.25%) for 20 min at 37° C. […]

[2] = tested on: PKCδ; assay: Immunoprecipitation kinase assay (histone H1 phosphorylation) in N27 cells; assay type: cell-based, rat; conditions: inhibitor 50 μM
From the text: as §1, with “culture.” for “culture. Rat mesencephalic dopaminergic neuronal (N27) cells were cultured as described earlier (Anantharam et al., 2002). Briefly, cells were grown in RPMI 1640 medium containing 10% fetal bovine serum, 2 mM L-glutamine, 50 units of penicillin, and 50 μg/ml streptomycin. Cells were maintained in a humidified atmosphere of 5% CO2 at 37° C. Primary mesencephalic neuronal cultures were prepared from the ventral mesencephalon of gestational 18-day-old mice embryos as described previously (Yang et al., 2004). Mesencephalic tissues were dissected and maintained in ice-cold Ca2+-free HBSS and then dissociated in HBSS solution containing trypsin-EDTA (0.25%) for 20 min at 37° C.”

SMILES: CC[C@H](C)[C@H](NC(=O)[C@H](CC(=O)OC)NC(=O)OCc1ccccc1)C(=O)N1CCC[C@H]1C(=O)N[C@@H](CC(=O)OC)C(=O)CF [z-DIPD-fmk, Z-Asp(OMe)-Ile-Pro-Asp(OMe)-FMK] (Cbz-D(OMe)IPD(OMe)-CH2F)
- effect on 6-OHDA-induced caspase-3 activation ([1]; 100 μM 6-OHDA 24 hr, inhibitor 50 μM): completely blocked
- effect on MPP+-induced caspase-3 activation ([1]; 300 μM MPP+ 36 hr, inhibitor 50 μM): completely blocked
- effect on MPP+- and 6-OHDA-induced caspase-3 activation ([1]; co-treatment, concentration not given): dose-dependently attenuated
- effect on 6-OHDA-induced PKCδ kinase activity ([2]; 100 μM 6-OHDA 24 hr): almost completely suppressed
- effect on MPP+-induced PKCδ kinase activity ([2]; 300 μM MPP+ 36 hr): almost completely suppressed

Reference: patent US7632819B1, “Methods and compositions for inhibiting PKC delta cleavage for treatment and prevention of neurodegeneration and apoptosis” (Iowa State University Research Foundation, Inc., priority 2004, dated 2009)
